Source: patent publication US20250223306A1, “TEAD INHIBITORS AND METHODS OF USE” (Sporos BioDiscovery, Inc., priority 2022, published 2025)

How the values were obtained:
Type in all cases: cell-based
SDM103T2 cells = assay: SDM103T2 proliferation and cell viability assay (CTG); settings: SDM103T2 cell line, 144 hours
Procedure: SDM103T2 cells were trypsinised, counted and plated at the specified cell density in 200 μl of growth media in 96 well flat bottom tissue culture treated plates. The plated cells were incubated overnight at 37° C., 5% CO2 before being treated with compounds in triplicate for each assay point. 50 μl of the serially diluted compound was added to each well giving a final DMSO concentration of 0.5% per well and a total volume of 250 μl per well. The treated cells were incubated for 144 hours (6 days) at 37° C., 5% CO2. Following compound treatment the remaining viable cells were detected using the Promega CellTiter-Glo 2.0 assay as follows: 150 μl of media was removed from each of the wells to be assayed and 100 μl of room temperature CellTiter-Glo 2.0 reagent was added. The plate was placed on an orbital shaker at 500 rpm at room temperature for 2 minutes, and then incubated without shaking for a further 10 minutes at room temperature. 150 μl of cell lysate was removed from each well and dispensed into a single well of a white opaque 96 well plate. Luminescence at 545 nm was read using a BMG CLARIOstar plate reader. The luminescent signal was directly proportional to number of viable cells, the percent of viable cells relative to the DMSO control was then calculated for each assay point. Percent viability relative to DMSO control was plotted against compound concentration and a curve fitted with non-linear regression in GraphPad Prism software. EC50 and IC50 values were calculated using GraphPad Prism software as follows: For EC50 values a non-constrained four-parameter logistic curve fit was used (Sigmoidal, 4PL, X is concentration). For Absolute IC50 values the baseline was constrained to Y=0 (Absolute IC50, X is concentration). Area Under the Curve (AUC): Prism computes area-under-the-curve by the trapezoidal method. The analysis sees a fitted curve as simply a series of connected XY points. Prism simply computes the area under the “curve” defined by connecting the points by straight lines. The units of the AUC are the units of the Y axis times units of the X axis.

Mero82 cells = assay: Mero82 proliferation and cell viability assay (CTG); settings: Mero82 cell line, 144 hours
Procedure: Mero 82 cells were trypsinised, counted and plated at 400 cells/well in 200 μl of growth media in 96 well flat bottom tissue culture treated plates. The plated cells were incubated overnight at 37° C., 5% CO2 before being treated with compounds in triplicate for each assay point. 50 μl of the serially diluted compound was added to each well giving a final DMSO concentration of 0.5% per well and a total volume of 250 μl per well. The treated cells were incubated for 144 hours (6 days) at 37° C., 5% CO2. Following compound treatment, the remaining viable cells were detected using the Promega CellTiter-Glo 2.0 assay as follows: 150 μl of media was removed from each of the wells to be assayed and 100 μl of room temperature CellTiter-Glo 2.0 reagent was added. The plate was placed on an orbital shaker at 500 rpm at room temperature for 2 minutes, and then incubated without shaking for a further 10 minutes at room temperature. 150 μl of cell lysate was removed from each well and dispensed into a single well of a white opaque 96 well plate. Luminescence at 545 nm was read using a BMG CLARIOstar plate reader. The luminescent signal was directly proportional to number of viable cells, the percent of viable cells relative to the DMSO control was then calculated for each assay point. Percent viability relative to DMSO control is plotted against compound concentration and a curve fitted with non-linear regression in GraphPad Prism software. IC50 values were calculated using GraphPad Prism software as follows: For Relative IC50 values a non-constrained four-parameter logistic curve fit was used (Sigmoidal, 4PL, X is concentration). For Absolute IC50 values the baseline was constrained to Y=0 (Absolute IC50, X is concentration). Area Under the Curve (AUC): Prism computes area-under-the-curve by the trapezoidal method. The analysis sees a fitted curve as simply a series of connected XY points. Prism simply computes the area under the “curve” defined by connecting the points by straight lines. The units of the AUC are the units of the Y axis times units of the X axis.

Mero14 cells = assay: Mero14 proliferation and cell viability assay (CTG); settings: Mero14 cell line, 144 hours
Procedure: Mero14 cells were trypsinised, counted and plated at 400 cells/well in 200 μl of growth media in 96 well flat bottom tissue culture treated plates. The plated cells were incubated overnight at 37° C., 5% CO2 before being treated with compounds in triplicate for each assay point. 50 μl of the serially diluted compound was added to each well giving a final DMSO concentration of 0.5% per well and a total volume of 250 μl per well. The treated cells were incubated for 144 hours (6 days) at 37° C., 5% CO2. Following compound treatment the remaining viable cells were detected using the Promega CellTiter-Glo 2.0 assay as follows: 150 μl of media was removed from each of the wells to be assayed and 100 μl of room temperature CellTiter-Glo 2.0 reagent was added. The plate was placed on an orbital shaker at 500 rpm at room temperature for 2 minutes, and then incubated without shaking for a further 10 minutes at room temperature. 150 μl of cell lysate was removed from each well and dispensed into a single well of a white opaque 96 well plate.
Luminescence at 545 nm was read using a BMG CLARIOstar plate reader. The luminescent signal was directly proportional to number of viable cells, the percent of viable cells relative to the DMSO control was then calculated for each assay point. Percent viability relative to DMSO control is plotted against compound concentration and a curve fitted with non-linear regression in GraphPad Prism software. IC50 values were calculated using GraphPad Prism software as follows: For Relative IC50 values, a non-constrained four-parameter logistic curve fit was used (Sigmoidal, 4PL, X is concentration). For Absolute IC50 values the baseline was constrained to Y=0 (Absolute IC50, X is concentration). Area Under the Curve (AUC): Prism computed area-under-the-curve by the trapezoidal method. The analysis sees a fitted curve as simply a series of connected XY points. Prism simply computes the area under the “curve” defined by connecting the points by straight lines. The units of the AUC are the units of the Y axis times units of the X axis.

C[C@H](NC(=O)c1cnc2c(C3=CC[C@@H](C(F)(F)F)CC3)cccc2c1)c1ncco1 (single isomer, unassigned) [Compound 19, N-(1-(oxazol-2-yl)ethyl)-8-(4-(trifluoromethyl)cyclohex-1-en-1-yl)quinoline-3-carboxamide]
EC50 (SDM103T2 cells): < 0.2 µM | EC50 (Mero82 cells): < 0.2 µM | EC50 (Mero14 cells): < 0.2 µM

FC(F)(F)c1ccc(CN2CCC(C3CC(Br)=NO3)CC2)cc1 (stereo not drawn) [Compound 1-2, reference compound]
EC50 (SDM103T2 cells): > 1 µM | EC50 (Mero82 cells): > 1 µM | EC50 (Mero14 cells): 0.2 to 1 µM

C=CC(=O)Nc1ccc(C)c(Oc2ccc(Cl)cc2)c1 [Compound 1-3, reference compound]
EC50 (SDM103T2 cells): < 0.2 µM | EC50 (Mero82 cells): < 0.2 µM | EC50 (Mero14 cells): < 0.2 µM

C[C@H](CO)NC(=O)c1cnc2c(C3=CCC(C(F)(F)F)CC3)cccc2c1 (stereo partly drawn) [Compound 7, N—((R)-1-hydroxypropan-2-yl)-8-(4-(trifluoromethyl)cyclohex-1-en-1-yl)quinoline-3-carboxamide]
EC50 (SDM103T2 cells): < 0.2 µM | EC50 (Mero82 cells): < 0.2 µM | EC50 (Mero14 cells): < 0.2 µM

O=C(NCc1ncco1)c1cnc2c(C3=CCC(C(F)(F)F)CC3)cccc2c1 (stereo not drawn) [Compound 11, N-(oxazol-2-ylmethyl)-8-(4-(trifluoromethyl)cyclohex-1-en-1-yl)quinoline-3-carboxamide]
EC50 (SDM103T2 cells): < 0.2 µM | EC50 (Mero82 cells): < 0.2 µM | EC50 (Mero14 cells): < 0.2 µM

O=C(NCc1ccn[nH]1)c1cnc2c(C3=CCC(C(F)(F)F)CC3)cccc2c1 (stereo not drawn) [Compound 47, N-((1H-pyrazol-5-yl)methyl)-8-(4-(trifluoromethyl)cyclohex-1-en-1-yl)quinoline-3-carboxamide]
EC50 (SDM103T2 cells): < 0.2 µM | EC50 (Mero82 cells): < 0.2 µM | EC50 (Mero14 cells): < 0.2 µM

COC[C@H](CO)NC(=O)c1cnc2c(C3=CCC(C(F)(F)F)CC3)cccc2c1 (stereo partly drawn) [Compound 62, N—((S)-1-hydroxy-3-methoxypropan-2-yl)-8-(4-(trifluoromethyl)cyclohex-1-en-1-yl)quinoline-3-carboxamide]
EC50 (SDM103T2 cells): < 0.2 µM | EC50 (Mero82 cells): < 0.2 µM | EC50 (Mero14 cells): < 0.2 µM

COc1cc(C2=CCC(C(F)(F)F)CC2)c2ncc(C(=O)N[C@H](C)c3ncco3)cc2c1 (stereo partly drawn) [Compound 109, 6-methoxy-N—((R)-1-(oxazol-2-yl)ethyl)-8-(4-(trifluoromethyl)cyclohex-1-en-1-yl)quinoline-3-carboxamide]
EC50 (SDM103T2 cells): < 0.2 µM | EC50 (Mero82 cells): < 0.2 µM | EC50 (Mero14 cells): < 0.2 µM

COc1cc(C2=CCC(C(F)(F)F)CC2)c2ncc(C(=O)N[C@H](C)CO)cc2c1 (stereo partly drawn) [Compound 110, N—((R)-1-hydroxypropan-2-yl)-6-methoxy-8-(4-(trifluoromethyl)cyclohex-1-en-1-yl)quinoline-3-carboxamide]
EC50 (SDM103T2 cells): < 0.2 µM | EC50 (Mero82 cells): < 0.2 µM | EC50 (Mero14 cells): < 0.2 µM

C[C@H](CO)NC(=O)c1cnc2c(C3=CCC4(CC3)CC(F)(F)C4)cccc2c1 [Compound 165, (R)-8-(2,2-difluorospiro[3.5]non-6-en-7-yl)-N-(1-hydroxypropan-2-yl)quinoline-3-carboxamide]
EC50 (SDM103T2 cells): < 0.2 µM | EC50 (Mero82 cells): < 0.2 µM | EC50 (Mero14 cells): < 0.2 µM

C[C@@H](NC(=O)c1cnc2c(C3=CCC4(CC3)CC4)cccc2c1)c1ncco1 [Compound 166, (R)—N-(1-(oxazol-2-yl)ethyl)-8-(spiro[2.5]oct-5-en-6-yl)quinoline-3-carboxamide]
EC50 (SDM103T2 cells): < 0.2 µM | EC50 (Mero82 cells): < 0.2 µM | EC50 (Mero14 cells): < 0.2 µM
